Laboratory results as given in patent publication US9770460B2, “Non-digestible oligosaccharides for oral induction of tolerance against dietary proteins” (N.V. NUTRICIA, priority 2010, dated 2017).
Where no end group is shown, it is not given here.

System: whey sensitized animals
Experiment: Mouse model of whey protein allergy: ear swelling after oral pretreatment with peptide mixtures (Example 4)
Format: in vivo, mice
Conditions: Example 4, pretreatment prior to whey sensitization
Description: Three- to four-week-old pathogen free female C3H/HeOuJ mice (Charles River Laboratories, Maastricht, The Netherlands) were used for this experiment. The mice were maintained on cow's milk protein free standard mouse chow (AIN-93G soy, Special Diets Services, Wijk bij Duurstede, the Netherlands).
The AIN-93G control diet was mixed with non-digestible oligosaccharides (2% w/w). The same non-digestible oligosaccharides were used as in example 1.
18-amino-acid-long synthetic peptides of beta-lactoglobulin were obtained from JPT Peptide Technologies (Berlin, Germany) (Table 4). Whey protein was purchased from DMV International (Veghel, The Netherlands). […]. Phosphate-buffered saline (PBS) was obtained from Cambrex Bio Science (Verviers, Belgium).
Shortly prior to the experiment, the peptides were suspended in PBS. The peptides were combined in three mixtures, namely peptides 1-4 in mixture 1, peptides 5-7 in mixture 2 and peptides 8 and 9 in mixture 3. The final concentration of each peptide in the mixture was 8 mg/ml. […] Before and 1 h after the challenge, the ear thickness was measured using a digital micrometer (Mitutoyo, Veenendaal, the Netherlands). The difference in the ear thickness (ear swelling) is an indication for the acute allergic response and is expressed as delta μm.

AASDISLLDAQSAPLRVY [Peptide 3, beta-lactoglobulin AA 25-42]
allergic response / synergy with NDO, in words: did not show these synergistic effects with NDO
